Reference: article PMC8895377, “In Vivo Targeting Replication Protein A for Cancer Therapy” (Frontiers in Oncology, 2022)

Key:
[1] = test system: H460 NSCLC tumor xenografts; assay: H460 NSCLC xenograft efficacy; assay type: in vivo, mice; conditions: 20 mg/kg IP daily for 5 days, 2 days off, repeated 3 times, optimized formulation
Excerpt: To assess anticancer efficacy, the hind flanks of 60 8–10-week-old Nod SCID gamma (NSG) mice were implanted with the indicated cells (~2 × 10^6) in Matrigel. Tumor volumes were monitored by electronic caliper measurement [tumor volumes = length × (perpendicular width)^2 × 0.5]. NSG studies were approved by the Institutional Animal Care and Use Committee at Indiana University School of Medicine. Male NSG (NOD‐scid/IL2Rg^null) mice (In Vivo Therapeutics Core Facility, IU Simon Comprehensive Cancer Center, Indianapolis, IN, USA) were used and housed in a pathogen‐free facility at IUSM LARC. Mice with tumors of approximately 100 mm^3 were randomized into individual treatment arms. The indicated RPAi was formulated and administered via intraperitoneal injection (IP) at the indicated times. Tumor volumes were monitored biweekly as indicated, and the results are presented as the average tumor volume ± standard error of the mean for each group. […]
Figure 8 In vivo analysis of anticancer activity of 329. (A) Anticancer activity was assessed in human H460 NCSLC tumor xenografts in NOD/SCID mice. Mice were implanted subcutaneously on day 1 with H460 NSCLC cells, tumors were measured by calipers, and mice assigned randomly to treatment arms. […] (C) Tumor weight from A549 cells was determined on day 32. […]

[2] = test system: A549 adenocarcinoma and H460 large cell carcinoma; set-up: method as in doi:10.1101/2020.11.30.404640; conditions: both models, differing dosing regimens, DMSO/Tween; cited from earlier work
60 cancer cell lines = assay: Cell viability in 60 cancer cell lines (CellTiter-Glo); assay type: cell-based; conditions: 72 h, most values, read-out: cellular IC50
Experimental: In this study, 90-µl cell suspensions were seeded in 96-well plates in respective culture medium with a final cell density of 4 × 10^3 cells/well and incubated overnight. Here, 10× solution of 329 (top working concentration: 40 µM of test article in media with 3.16-fold serial dilutions to achieve 9 dose levels) was prepared, and 10 µl of drug solution or culture medium containing 0.5% DMSO (vehicle control) was added to the plate (triplicate for each drug concentration). Plates were incubated for 72 h at 37°C with 5% CO2 and then measured by CellTiter-Glo assay (Promega). Briefly, plates were equilibrated at room temperature for 30 min, and 50 µl of CellTiter-Glo reagent was added to each well. Contents were mixed for 5 min on an orbital shaker to induce cell lysis, and plates were further incubated at room temperature for 20 min to stabilize the luminescent signal. Luminescence was recorded using EnVision Multi Plate Reader. Percent cell growth was calculated relative to DMSO-treated cells (vehicle control), and the data were fit using non-linear regression analysis (GraphPad PRISM) to calculate cellular IC50.
Figure 4 Cellular activity of 329 in 60 cancer cell lines. Cell lines were treated with a 4-log range of replication protein A inhibitor (RPAi) 329 for 72 h. Cell viability was assessed using CellTiter-Glo luminescent viability assay. […]

[3] = biological target: Escherichia coli single strand binding protein (SSB) (Escherichia coli, UniProt P0AGE0); assay: EMSA internal specificity control, SSB–ssDNA complex; conditions: internal specificity control in EMSA
Experimental: EMSAs were performed as previously described ([9]). Briefly, reactions were conducted in 20 mM HEPES (pH 7.8), 1 mM DTT, 0.001% NP-40, and 50 mM NaCl. RPAis were suspended in 100% dimethlysulfoxide (DMSO), and DMSO concentration in the final reaction mixture was constant at less than 5%. Purified full-length RPA (120 ng) was incubated with the indicated RPAi or vehicle in reaction buffer for 30 min before the addition of the [^32]P-labeled 34-base ssDNA probe. Reactions were incubated for 5 min at room temperature, and products were separated via 6% native polyacrylamide gel electrophoresis. The bound and unbound fractions were quantified by phosphor-imager analysis using ImageQuant software (Molecular Dynamics, CA), and data were fit by non-linear regression using GraphPad Prism.
Figure 2 Replication protein A inhibitor (RPAi) inhibitory activity. (A) Chemical structure of RPAi’s 329 and 2004. (B) EMSA analysis of RPA–DNA interaction inhibition by 329 and 2004. Lanes 3–6 in each panel contain 6.25, 12.5, 25, and 50 µM of the indicated RPAi, respectively. The * indicates the position of the Escherichia coli SSB–single-stranded DNA (ssDNA) complex that serves as an internal specificity control. (C) Cell viability of H460 NSCLC cells in response to 329 and 2004.

H460 NSCLC cells = assay: CCK-8 viability assay; assay type: cell-based, human; conditions: H460, 48 h, compared to 551 predecessor
Experimental: Cell lines were obtained from ATCC and maintained as monolayer cultures in RPMI 1640 medium (H460) or Dulbecco’s Modified Eagle's Medium (DMEM) (A549) supplemented with 10% fetal bovine serum. H460 and A549 cells were plated at 2.5 × 10^3 cells/well and A2780 and GCT27 cells plated at 5 × 10^3 cells/well in a 96-well plate and incubated for 18–24 h prior to treatments. Cells were treated with the indicated concentration of RPAi for 48 h. The vehicle (DMSO) concentration was held constant at 1%. Cell metabolism/viability was assessed by a mitochondrial metabolism assay (CCK-8) as we have described previously ([10]). The generation of the water-soluble formazan product by cellular dehydrogenases is proportional to the number of living cells. Following incubation with CCK-8 reagent, absorbance was measured at 450 nm with a BioTek Synergy H1 plate reader. Values were compared to those of vehicle-treated controls to determine percent viability, and the results represent the average and SEM of triplicate determinations.

Chain of Escherichia coli single strand binding protein (SSB) (P0AGE0 2-178): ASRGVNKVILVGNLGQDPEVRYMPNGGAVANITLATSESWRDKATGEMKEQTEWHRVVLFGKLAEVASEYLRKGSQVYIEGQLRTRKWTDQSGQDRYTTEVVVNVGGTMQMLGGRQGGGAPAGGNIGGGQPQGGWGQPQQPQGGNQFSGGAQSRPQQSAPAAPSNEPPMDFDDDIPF

CCOc1ccc2cc(C3CC(c4ccc(I)cc4)=NN3C(=O)CCCC(=O)NCCCN3CCOCC3)c(Cl)nc2c1 (centres unmarked) [compound 329]
tumor volume [1]: a decrease in tumor volume was observed starting at day 17
single-agent anticancer activity in vivo [2]: only modest single-agent anticancer activity
IC50 (60 cancer cell lines): 5 to 10 µM
interaction of E. coli SSB with ssDNA [3]: not impacted
single-agent cellular anticancer activity (CCK-8) (H460 NSCLC cells): potent single-agent activity
